Laboratory results from ChEMBL document CHEMBL1201862, “PubChem BioAssay data set” (2004).
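Five compound concentrations were applied to cells in 96-well plates for 48 hours; endpoints were derived by simple linear interpolation of the resulting dose-response curve. GI50: concentration for 50% inhibition of growth.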 Active and inactive are the calls of the source. No stated cut-off is given here; in the data, active = GI50 up to about 1.1 µM and inactive = higher.

Legend:
Test in all cases: DTP human tumour cell line panel, 48 h
[1] = tested on: TK-10
[2] = tested on: COLO 205
[3] = tested on: IGROV-1
[4] = tested on: LOX IMVI
[5] = tested on: SNB-19
[6] = tested on: ACHN
[7] = tested on: SW-620
[8] = tested on: SK-MEL-28
[9] = tested on: SNB-75
[10] = tested on: Malme-3M
[11] = tested on: OVCAR-4
[12] = tested on: OVCAR-5
[13] = tested on: NCI-H226
[14] = tested on: SN12C
[15] = tested on: HL-60
[16] = tested on: HT-29
[17] = tested on: A498

COc1cc([C@@H]2c3cc4c(c(O)c3C[C@H]3COC(=O)[C@@H]32)OCO4)cc(OC)c1OC [BETA-PELTATIN A]
GI50 [1]: 31.6 µM (inactive) | GI50 [2]: 0.0238 µM (active) | GI50 [3]: 0.015 µM (active) | GI50 [4]: 0.0267 µM (active) | GI50 [5]: 0.015 µM (active) | GI50 [6]: 0.0241 µM (active) | GI50 [7]: 0.015 µM (active) | GI50 [8]: 4.18 µM (inactive) | GI50 [9]: 1.61 µM (inactive) | GI50 [10]: 0.0156 µM (active) | GI50 [11]: 0.0627 µM (active) | GI50 [12]: 21.4 µM (inactive) | GI50 [13]: 0.302 µM (active) | GI50 [14]: 0.015 µM (active)

C1=C2/CC[C@H](Sc3ccccc3)C2C2(CCCCC/1)OCCO2 (stereo partly drawn)
GI50 [1]: 83.9 µM (inactive) | GI50 [2]: 21.6 µM (inactive) | GI50 [3]: 27.9 µM (inactive) | GI50 [15]: 8.41 µM (inactive) | GI50 [4]: 15.2 µM (inactive) | GI50 [5]: > 100 µM (inactive) | GI50 [6]: 26.7 µM (inactive) | GI50 [7]: 28.1 µM (inactive) | GI50 [8]: 30.2 µM (inactive) | GI50 [9]: 23.9 µM (inactive) | GI50 [10]: 22.1 µM (inactive) | GI50 [16]: 14.4 µM (inactive) | GI50 [13]: 23.6 µM (inactive) | GI50 [14]: 32.3 µM (inactive)

CN(C)c1ccc2c(=O)c3ccccc3oc2n1
GI50 [1]: > 100 µM (inactive) | GI50 [2]: > 100 µM (inactive) | GI50 [3]: 93.1 µM (inactive) | GI50 [15]: > 100 µM (inactive) | GI50 [4]: > 100 µM (inactive) | GI50 [5]: > 100 µM (inactive) | GI50 [6]: 42 µM (inactive) | GI50 [7]: > 100 µM (inactive) | GI50 [8]: > 100 µM (inactive) | GI50 [9]: > 100 µM (inactive) | GI50 [10]: > 100 µM (inactive) | GI50 [11]: > 100 µM (inactive) | GI50 [12]: > 100 µM (inactive) | GI50 [14]: > 100 µM (inactive)

CN(C)c1ccc(/C=C2\CNC/C(=C\c3ccc(N(C)C)cc3)C2=O)cc1
GI50 [1]: 33.3 µM (inactive) | GI50 [2]: 45.1 µM (inactive) | GI50 [3]: 22 µM (inactive) | GI50 [17]: 17.6 µM (inactive) | GI50 [4]: 18.8 µM (inactive) | GI50 [6]: 24.4 µM (inactive) | GI50 [8]: 22.8 µM (inactive) | GI50 [9]: 11.1 µM (inactive) | GI50 [10]: > 100 µM (inactive) | GI50 [16]: 10.9 µM (inactive) | GI50 [11]: 13.3 µM (inactive) | GI50 [12]: > 100 µM (inactive) | GI50 [13]: 32.7 µM (inactive) | GI50 [14]: 26.5 µM (inactive)

COc1ccc([Se]c2ccc(OC)cc2)cc1
GI50 [1]: > 100 µM (inactive) | GI50 [2]: > 100 µM (inactive) | GI50 [3]: > 100 µM (inactive) | GI50 [17]: 99.1 µM (inactive) | GI50 [15]: 41.5 µM (inactive) | GI50 [4]: > 100 µM (inactive) | GI50 [5]: > 100 µM (inactive) | GI50 [6]: > 100 µM (inactive) | GI50 [7]: > 100 µM (inactive) | GI50 [8]: > 100 µM (inactive) | GI50 [9]: 19.3 µM (inactive) | GI50 [10]: > 100 µM (inactive) | GI50 [16]: 43.6 µM (inactive) | GI50 [13]: 17.4 µM (inactive) | GI50 [14]: > 100 µM (inactive)

COc1ccc(NC(=O)C(=O)Cc2nc3ccc([N+](=O)[O-])cc3nc2O)c(OC)c1
GI50 [1]: > 100 µM (inactive) | GI50 [2]: > 100 µM (inactive) | GI50 [3]: > 100 µM (inactive) | GI50 [17]: 44.6 µM (inactive) | GI50 [15]: > 100 µM (inactive) | GI50 [4]: 87.9 µM (inactive) | GI50 [5]: > 100 µM (inactive) | GI50 [6]: > 100 µM (inactive) | GI50 [7]: > 100 µM (inactive) | GI50 [8]: > 100 µM (inactive) | GI50 [9]: > 100 µM (inactive) | GI50 [10]: > 100 µM (inactive) | GI50 [16]: > 100 µM (inactive) | GI50 [11]: > 100 µM (inactive) | GI50 [12]: > 100 µM (inactive) | GI50 [13]: > 100 µM (inactive)

CCCCCCCCCCCC(=O)OCC1OC(n2cc(F)c(=O)[nH]c2=O)C(NC(=O)OCc2ccccc2)C(OC(=O)CCCCCCCCCCC)C1O (stereo not drawn)
GI50 [1]: > 100 µM (inactive) | GI50 [2]: > 100 µM (inactive) | GI50 [3]: > 100 µM (inactive) | GI50 [17]: > 100 µM (inactive) | GI50 [4]: > 100 µM (inactive) | GI50 [5]: > 100 µM (inactive) | GI50 [6]: > 100 µM (inactive) | GI50 [7]: > 100 µM (inactive) | GI50 [8]: > 100 µM (inactive) | GI50 [9]: > 100 µM (inactive) | GI50 [10]: > 100 µM (inactive) | GI50 [16]: > 100 µM (inactive) | GI50 [11]: > 100 µM (inactive) | GI50 [12]: > 100 µM (inactive) | GI50 [13]: > 100 µM (inactive) | GI50 [14]: > 100 µM (inactive)
